This note sets out measurements from paper PMC2959035, “Comparative biochemical analysis of recombinant reverse transcriptase enzymes of HIV-1 subtype B and subtype C” (Retrovirology, 2010).

Where two headings read alike, the source gives them in different places.

Experiment in all cases: RNA-dependent DNA polymerase assay, [3H]-dTTP incorporation
Assay type in all cases: biochemical

In assay [1] the target is T1, B RT-1 (HIV-1 subtype B RT, NL4-3) (Human immunodeficiency virus type 1 (NEW YORK-5 ISOLATE), UniProt P12497).
T1 construct: gene gag-pol; p66/p51 heterodimer cut from the Pol (Gag-Pol) polyprotein; plasmid pbRT6H-PROT with co-expressed HIV-1 protease; 6-His tag; E. coli M15; Ni-NTA, DEAE- and SP-Sepharose; with p51 RT of Gag-Pol polyprotein
The source says:
RNA-dependent DNA polymerase assay, [3H]-dTTP incorporation on B RT-1 (HIV-1 subtype B RT, NL4-3)

Assay [2] deals with T2, C RT-2 (HIV-1 subtype C RT, isolate M01) (HIV-1 M:C_92BR025, UniProt O12158).
T2 construct: gene gag-pol; p66/p51 heterodimer cut from the Pol (Gag-Pol) polyprotein; His-tagged, E. coli; with p51 RT of Gag-Pol polyprotein
The note with it: HIV-1 PBS RNA/dPR template/primer 30 nM, dNTPs 5 μM each, 6 mM MgCl2, 60 mM KCl, pH 7.8, 37°C, 30 min, read-out: IC50 (μM)^a / C RT-2 ^e. The source says: RNA-dependent DNA polymerase assay, [3H]-dTTP incorporation on C RT-2 (HIV-1 subtype C RT, isolate M01)

The target of assay [3] is T3, B RT-2 (HIV-1 subtype B RT, HXB2) (HIV-1 M:B_HXB2R, UniProt P04585).
T3 construct: gene gag-pol; p66/p51 heterodimer cut from the Pol (Gag-Pol) polyprotein; plasmid pRT6H-PROT with co-expressed HIV-1 protease; 6-His tag; E. coli M15; Ni-NTA, DEAE- and SP-Sepharose; with p51 RT of Gag-Pol polyprotein
From the text:
RNA-dependent DNA polymerase assay, [3H]-dTTP incorporation on B RT-2 (HIV-1 subtype B RT, HXB2)

Setting [4] is: nucleotide analogue, competitive at active site.
Setting [5] is: NNRTI, non-competitive allosteric.
The mark [6] stands for this setting: read-out: IC50 (μM)^a / B RT-2^c.
Where [7] appears, read: read-out: IC50 (μM)^a / B RT-1^b.

Turning to `Nc1ccn([C@@H]2CS[C@H](COP(=O)(O)OP(=O)(O)OP(=O)(O)O)O2)c(=O)n1` [3TC-TP], the IC50 in assay [1] stood at 2.7 ± 0.3 µM; in assay [2] (setting [4]) it was 4.1 ± 0.4 µM.
In the case of `O=C1Nc2ccc(Cl)cc2[C@@](C#CC2CC2)(C(F)(F)F)O1` [EFV], the IC50 in assay [2] (setting [5]) turned out to be 0.18 ± 0.02 µM.
Take `Cc1cc(C#N)cc(C)c1Oc1nc(Nc2ccc(C#N)cc2)nc(N)c1Br` [ETR]: the IC50 in assay [3] (setting [6]) was found to be 0.16 ± 0.02 µM; in assay [1] (setting [7]), 0.17 ± 0.03 µM; in assay [2] (setting [5]), 0.19 ± 0.03 µM.
In the case of `Cc1ccnc2c1NC(=O)c1cccnc1N2C1CC1` [NVP], the IC50 in assay [2] (setting [5]) came to 4.3 ± 0.3 µM.
On to `C[C@H](Cn1cnc2c(N)ncnc21)OCP(=O)(O)OP(=O)(O)OP(=O)(O)O` [TFV-DP], for which the IC50 in assay [3] (setting [6]) worked out at 2.1 ± 0.3 µM; in assay [1] (setting [7]) it was 2.5 ± 0.3 µM; in assay [2] (setting [4]) it was 2.9 ± 0.4 µM.
In the case of `Cc1cn([C@H]2C[C@H](N=[N+]=[N-])[C@@H](CO[P@](=O)(O)O[P@](=O)(O)OP(=O)(O)O)O2)c(=O)[nH]c1=O` [ZDV-TP], the IC50 in assay [3] is 2.9 ± 0.4 µM; in assay [2] (150 μM sodium pyrophosphate included, nucleotide analogue, competitive at active site), 3.8 ± 0.5 µM.
